Assay results reported in patent publication US9394260B2, “Pyrimidinone carboxamide inhibitors of endothelial lipase” (BRISTOL-MYERS SQUIBB COMPANY, priority 2012, dated 2016).

molecular target: T1, endothelial lipase (EL) (Homo sapiens, UniProt Q9Y5X9); assay: Endothelial lipase (EL) enzymatic assay with fluorescent substrate A10070 in DMPG vesicles; format: biochemical; conditions: conditioned media from HT-1080 cells overexpressing endogenous EL, 20 min preincubation at 37° C.
T1 construct: transformed by RAGE technology (Athersys) to overexpress endogenous EL; endogenous in cells; conditioned medium used as the enzyme source
T1 sequence (Q9Y5X9 21-500): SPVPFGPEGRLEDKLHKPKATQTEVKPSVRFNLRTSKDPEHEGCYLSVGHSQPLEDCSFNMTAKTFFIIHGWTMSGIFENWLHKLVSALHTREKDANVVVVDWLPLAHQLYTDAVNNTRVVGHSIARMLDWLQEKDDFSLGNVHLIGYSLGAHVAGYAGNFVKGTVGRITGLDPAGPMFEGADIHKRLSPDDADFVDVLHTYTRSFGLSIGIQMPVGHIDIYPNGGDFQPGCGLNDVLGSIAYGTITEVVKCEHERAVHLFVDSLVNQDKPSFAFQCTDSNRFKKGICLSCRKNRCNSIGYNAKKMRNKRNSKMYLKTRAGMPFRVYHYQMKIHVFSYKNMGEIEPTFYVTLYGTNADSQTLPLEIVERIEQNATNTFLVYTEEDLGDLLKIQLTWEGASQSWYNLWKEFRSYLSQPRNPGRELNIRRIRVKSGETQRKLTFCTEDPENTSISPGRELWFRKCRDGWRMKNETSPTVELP
Description: Endothelial lipase activity was measured using a fluorescent substrate, A10070, (Invitrogen, CA) doped into an artificial vesicle containing DMPG (Avanti Polar Lipids) as the excipient. Vesicles were prepared by combining 285 μL of 1 mM DMPG in a 1:1 mixture of MeOH and CHCl3 with 15 μL of 1 mM A10070 in a 1:1 mixture of MeOH and CHCl3. The mixture was dried under nitrogen and resuspended in 150 μL of 50 mM HEPES pH 8.0 buffer containing 100 mM NaCl and 0.2 mM EDTA. The sample was allowed to sit at rt for 15 min and then was sonicated 3×4 mins on ice with a Branson Sonicator using duty cycle 1. This preparation provides vesicles with a mole fraction of 0.05 for the FRET substrate.
The enzymatic assay was measured using white, opaque 96-well half area plates. Each well contained 60 μL of assay buffer (50 mM HEPES pH 8.0, 50 mM NaCl and 1 mM CaCl2) and 2 ul of a DMSO solution containing compound of interest. Conditioned media obtained from HT-1080 cells, which were transformed by RAGE technology (Athersys) to overexpress endogenous EL, was added and the reaction was allowed to incubate for 20 min at 37° C. with gentle agitation. The reaction was started by the addition of 20 μL of a 1:4 dilution of vesicles. The final total reaction volume was 100 μL. The reaction rates were measured on a Gemini plate reader with an excitation wavelength of 488 nm and a emission of 530 nm. Readings were taken every 20 seconds for 10 min with agitation between each reading. The slope of the linear portion of the readout was used to calculate the rate of the reaction.
The exemplified examples disclosed in the present invention were tested in the EL assay described above and found having EL inhibitory activity. A range of EL IC50 values of ≦10 μM (10000 nM) was observed.

IC50 [nM]	SMILES
369	C[C@@H](NC(=O)c1[nH]c(=O)[nH]c(=O)c1N)c1cccc(-c2cnn(Cc3nc4ccccc4s3)c2)c1 [Example 160, (R)-5-amino-N-(1-(3-(1-(benzo[d]thiazol-2-ylmethyl)-1H-pyrazol-4-yl)phenyl)ethyl)-2,6-dioxo-1,2,3,6-tetra-hydropyrimidine-4-carboxamide]
441	C[C@@H](NC(=O)c1[nH]c(=O)[nH]c(=O)c1N)c1cccc(-c2cnn(CC3CCN(C(=O)OCc4ccccc4)CC3)c2)c1 [Example 161, (R)-benzyl 4-((4-(3-(1-(5-amino-2,6-dioxo-1,2,3,6-tetra-hydropyrimidine-4-carboxamido)ethyl)phenyl)-1H-pyrazol-1-yl)methyl) piperidine-1-carboxylate]
358	COc1ccc(CNc2c(C(=O)N[C@H](C)CCc3ccc(Cl)c(Cl)c3)[nH]c(=O)n(C)c2=O)cc1 [Example 171, (R)—N-(4-(3,4-Dichlorophenyl)butan-2-yl)-5-(4-methoxybenzylamino)-1-methyl-2,6-dioxo-1,2,3,6-tetrahydropyrimidine-4-carboxamide]
4640	CCCOc1cc(F)ccc1CNC(=O)c1c(O)c(=O)n(C)c(=O)n1CCC [Example 176, N-(4-fluoro-2-propoxybenzyl)-5-hydroxy-1-methyl-2,6-dioxo-3-propyl-1,2,3,6-tetra-hydropyrimidine-4-carboxamide]
10	C[C@@H](NC(=O)c1[nH]c(=O)[nH]c(=O)c1O)c1cccc(-c2cnn(Cc3ccccc3)c2)c1 [Example 181, (R)-N-(1-(3-(1-benzyl-1H-pyrazol-4-yl)phenyl)ethyl)-5-hydroxy-2,6-dioxo-1,2,3,6-tetra-hydropyrimidine-4-carboxamide]
10	C[C@@H](NC(=O)c1[nH]c(=O)[nH]c(=O)c1O)c1cccc(OCc2ccccc2)c1 [Example 182, (R)-N-(1-(3-(benzyloxy)phenyl)ethyl)-5-hydroxy-2,6-dioxo-1,2,3,6-tetrahydro-pyrimidine-4-carboxamide]
